Reference: paper PMC3969271, “A Bacterial Homolog of a Eukaryotic Inositol Phosphate Signaling Enzyme Mediates Cross-kingdom Dialog in the Mammalian Gut” (Cell Reports, 2014)

Legend:
BtMinpp [1] = biological target: T1, BtMinpp (Bacteroides thetaiotaomicron, UniProt Q89YI8); experiment: HPLC of […]-labelled products; phosphatase activity; type: biochemical; conditions: 1 mM InsP6; 0.25 μg/ml enzyme; labelled compound
T1 construct: gene BT_4744; N-terminal 6xHis fusion, expressed in Escherichia coli
T1 sequence (Q89YI8 21-425): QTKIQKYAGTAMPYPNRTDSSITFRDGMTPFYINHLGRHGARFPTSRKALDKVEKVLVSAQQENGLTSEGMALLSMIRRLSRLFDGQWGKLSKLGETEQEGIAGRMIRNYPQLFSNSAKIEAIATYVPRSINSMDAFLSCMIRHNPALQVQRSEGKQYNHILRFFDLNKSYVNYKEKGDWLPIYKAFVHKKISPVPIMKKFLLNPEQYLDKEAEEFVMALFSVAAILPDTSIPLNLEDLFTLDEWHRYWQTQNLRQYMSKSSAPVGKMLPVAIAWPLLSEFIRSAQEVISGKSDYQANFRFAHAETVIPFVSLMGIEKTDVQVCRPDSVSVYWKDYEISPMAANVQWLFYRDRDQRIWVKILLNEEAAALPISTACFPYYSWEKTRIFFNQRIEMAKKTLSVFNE

BtMinpp [2] = biological target: T1, BtMinpp; experiment: X-ray crystal structure, […] Å; type: binding; conditions: active site; nonhydrolysable InsP6 analog

Compound	HPLC of 32P-labelled products; phosphatase activity (BtMinpp [1])	X-ray crystal structure, 2.42 Å (BtMinpp [2])
O=P(O)(O)O[C@H]1[C@H](OP(=O)(O)O)[C@@H](OP(=O)(O)O)[C@H](OP(=O)(O)O)[C@@H](OP(=O)(O)O)[C@H]1OP(=O)(O)O [InsP6]	confirmed that this protein has InsP6 phosphatase activity (Figure 1A)	
O=S(=O)(O)O[C@H]1[C@H](OS(=O)(=O)O)[C@@H](OS(=O)(=O)O)[C@H](OS(=O)(=O)O)[C@@H](OS(=O)(=O)O)[C@H]1OS(=O)(=O)O [InsS6, myo-inositol hexakissulfate]		myo-inositol hexakissulfate (InsS6), again bound in the active sites of both molecules
